The results in this text go back to patent US9771430B2, “Method of treating a metabolic disorder induced by obesity in a subject in need thereof by administering MK2/3 inhibitors” (THE TRUSTEES OF COLUMBIA UNIVERSITY IN THE CITY OF NEW YORK, priority 2011, dated 2017).

“Also recorded” adds a separate entry of the source.

One test relates to CaMKII. The test is described as follows: CaMKII enzyme activity assay in primary mouse hepatocytes. The class given is cell-based. The settings on record: HCs, 100 nM glucagon, various times. The protocol: FIGS. 1A-J. Glucagon and fasting activates hepatic CaMKII. FIG. 1A. CaMKII enzyme activity was assayed in triplicate wells of primary mouse HCs stimulated with 100 nM glucagon (Gluc) or vehicle control (Veh) for the indicated times (*P<0.05 and **P<0.01 vs. Veh; mean±S.E.M.). FIGS. 1B-1J. Extracts of HCs or liver were probed for phospho-CaMKII, total CaMKII, and β-actin by immunoblot assay. FIG. 1B. HCs were incubated with […] glucagon for the indicated times; FIG. 1C. Glucagon was added to HCs that were pre-treated for 1 h with vehicle control (Veh) or 5 μM BAPTA-AM; FIG. 1D. […]
CaMKII activity was assayed using a CaMKII assay kit from Promega according to the manufacturer's instructions. […] Next, [γ-32P]ATP and CaMKII biotinylated peptide substrate were added to the lysate and after incubation for 10 minutes at 30° C., the [32P]-phosphorylated substrate was separated from the residual [32P]ATP using SAM biotin capture membrane and quantitated using a scintillation counter.
CaMKII activity was assayed using a CaMKII assay kit from Promega according to the manufacturer's instructions. […] After incubation for 10 min at 30° C., the [^32P]-phosphorylated substrate was separated from the residual [^32P]ATP using SAM biotin-capture membrane and then quantitated using a scintillation counter. […]

Test [1] in a line: Fasting glucose in C57BL/6J mice treated with Xestospongin C. The class given is in vivo, mouse. An excerpt: FIGS. 49A-S. The role of IP3R in forskolin/glucagon-induced G6Pase/PEPCK in cultured hepatocytes and in fasting blood glucose in vivo. FIG. 49 A,B. FSK-Induced G6Pase and PEPCK is Calcium-Dependent. FIG. 49C-D. IP3R Activity is Required for Forskolin- and Glucagon-Induced G6Pase and PEPCK (FAO rat hepatocyte cell line). FIG. 49E-F. IP3R Activity is Required for Forskolin-Induced G6Pase and PEPCK (primary murine hepatocytes). FIG. 49G-H. IP3R1 Anti-Sense Oligonucleotide Suppresses Forskolin-Induced G6Pase and PEPCK (primary murine hepatocytes). FIG. 49I. Forskolin Activates IP3R Activity in FAO Hepatocytes (Inositol/ATP-Induced Calcium Release Assay). FIG. 49J. The PKA Inhibitor H89 Suppresses Forskolin-Induced IP3R Activation. FIG. 49K-L. IP3R Activity is Required for Forskolin-Induced PGC1a. FIG. 49M-N. Calcineurin Inhibitory Peptide Suppresses Forskolin-Induced G6Pase and PEPCK. FIG. 49O. IP3R Activity is Required for Forskolin-Induced Calcineurin Activation. FIG. 49P-Q. IP3R Activity is Required for Forskolin-Induced TORC2 Dephosphorylation and Nuclear Localization. FIG. 49R. TORC2 Transduction Partially Restores Forskolin-Induced G6Pase in IP3R-Inhibited Hepatocytes. FIG. 49S. Xestospongin C Treatment Reduces Fasting Glucose Levels in C57BL/6J Mice.

The subject of test [2] is CRE-luciferase (luc) reporter. The test is described as follows: CRE-luciferase reporter activity in primary hepatocytes. The class given is cell-based, mouse. The conditions noted are these: response to glucagon. As for the experimental part: HEK293T (ATCC) cells were cultured in DMEM containing 10% FBS (HyClone), […] penicillin-streptomycin. Mouse primary hepatocytes were isolated and cultured as previously described (18). Cellular fractionation studies were conducted as previously reported (18). For reporter studies, Ad-CRE-luc infected hepatocytes (1 pfu per cell) were exposed to glucagon (Gcg, 100 nM) for 2˜4 h. For cyclosporine A (CsA, 10 μM) or okadaic acid (OA, 100 nM) or cell permeable calcineurin autoinhibitory peptide (10 μM) or CN585 (100 μM) or Calyculin A (10 nM) or Xestospongin C (Xc, 2 μM) or H89 (30 μM) or BAPTA (50 μM) inhibition, hepatocytes were pre-treated with the inhibitors for one hour. Luciferase activities were normalized to β-galactosidase activity from adenoviral-encoded RSV β-gal. Calcineurin activity (test kit from Enzo Life Sciences) and cellular cAMP levels (test kit from Cayman Chemical Company) were measured according to manufacturer's instructions.
On the technique in general: A reporter such as luciferase makes a cellular process visible.

For the molecule “glucagon: hormone used to stimulate hepatocytes and mice”, in the test with CaMKII, the CaMKII activity result is listed as “increased steadily as a function of time; also recorded: increases as a function of time”.
Consider `C1CCC[C@H]2CCCN3CC[C@@H](CCCCCC[C@@H]4CCCN5CC[C@@H](CC1)O[C@@H]45)O[C@@H]23` [Xestospongin C], for which the “Fasting Glucose Levels” value in test [1] is given as “Reduces”. In addition, the “CRE-luciferase (luc) reporter activity / activation” value in test [2] is given as “blocked”.
